Source: ChEMBL document CHEMBL1201862, “PubChem BioAssay data set” (2004)
Calls of active or inactive are those of the source.

Experiments:
[1] = molecular target: Mitochondrial peptide methionine sulfoxide reductase (Bos taurus, UniProt P54149); format: functional;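 also: absorbance read-out, biochemical high-throughput dose-response screen for MsrA inhibitors, confirmatory; recombinant bovine MsrA coupled to E. coli TrxB with NADPH and selenocystamine; potency is for inhibitors of MsrA activity on DMSO substrate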
[2] = molecular target: T1, Corticotropin-releasing factor receptor 2/Corticotropin-releasing factor-binding protein (Homo sapiens, UniProt P24387+Q13324); experiment: activators of CRF receptor 2 with binding protein – uHTS hits, confirmation (AID 602473); format: functional; conditions: read-out: EC50_Mean
T1 sequence (Q13324 whole entry): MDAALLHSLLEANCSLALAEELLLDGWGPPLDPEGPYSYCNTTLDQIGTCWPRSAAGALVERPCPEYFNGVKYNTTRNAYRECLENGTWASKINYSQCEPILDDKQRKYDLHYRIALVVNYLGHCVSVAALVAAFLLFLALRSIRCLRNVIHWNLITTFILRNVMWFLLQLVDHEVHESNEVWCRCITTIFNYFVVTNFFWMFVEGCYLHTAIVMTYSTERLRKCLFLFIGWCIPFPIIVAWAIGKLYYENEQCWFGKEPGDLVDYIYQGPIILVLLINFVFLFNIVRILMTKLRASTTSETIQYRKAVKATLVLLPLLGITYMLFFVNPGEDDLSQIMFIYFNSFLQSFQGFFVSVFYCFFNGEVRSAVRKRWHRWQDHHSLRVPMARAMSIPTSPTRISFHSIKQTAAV
T1 sequence (P24387 whole entry): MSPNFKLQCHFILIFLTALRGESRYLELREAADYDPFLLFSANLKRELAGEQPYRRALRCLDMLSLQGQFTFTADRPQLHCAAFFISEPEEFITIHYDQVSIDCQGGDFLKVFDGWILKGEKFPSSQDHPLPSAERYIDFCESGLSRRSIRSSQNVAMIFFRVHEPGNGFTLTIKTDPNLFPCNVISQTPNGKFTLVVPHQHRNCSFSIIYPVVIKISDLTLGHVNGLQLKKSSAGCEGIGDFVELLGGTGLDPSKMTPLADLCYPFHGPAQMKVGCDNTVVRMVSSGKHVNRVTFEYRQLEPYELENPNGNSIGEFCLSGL

[3] = molecular target: T1, Corticotropin-releasing factor receptor 2/Corticotropin-releasing factor-binding protein; experiment: Dose Response confirmation of uHTS hits for small molecule antagonists of the CRF-binding protein and CRF-R2 receptor complex.; format: functional; conditions: read-out: IC50_Mean
[4] = blockers of CRF-binding protein–CRF-R2 complex – cell-based, uHTS hits, 384-well, dose response (AID 651639); format: functional, Homo sapiens; conditions: read-out: IC50_Mean
[5] = molecular target: Sentrin-specific protease 1 (Homo sapiens, UniProt Q9P0U3); experiment: Dose response confirmation of small molecule inhibitors of the catalytic domain of the SUMO protease, SENP1 in a FRET assay.; format: functional; conditions: read-out: IC50_Mean
[6] = molecular target: T2, Tyrosyl-DNA phosphodiesterase 2 (Homo sapiens, UniProt O95551); experiment: potency against TDP2 phosphodiesterase activity – biochemical, epi absorbance, IC50, dose response (AID 743297)
T2 sequence (O95551 whole entry): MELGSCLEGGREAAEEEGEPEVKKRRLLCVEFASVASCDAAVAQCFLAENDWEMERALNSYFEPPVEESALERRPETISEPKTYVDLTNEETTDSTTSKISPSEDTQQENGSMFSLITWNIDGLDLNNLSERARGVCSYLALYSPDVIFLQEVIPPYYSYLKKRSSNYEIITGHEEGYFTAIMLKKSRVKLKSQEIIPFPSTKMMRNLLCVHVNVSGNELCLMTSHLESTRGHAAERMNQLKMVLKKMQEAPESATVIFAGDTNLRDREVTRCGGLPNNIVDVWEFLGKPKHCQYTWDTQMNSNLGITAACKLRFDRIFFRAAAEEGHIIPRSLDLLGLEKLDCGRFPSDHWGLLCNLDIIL

Protein RecA = molecular target: T3, Protein RecA (Mycobacterium tuberculosis, UniProt P9WHJ3); experiment: Fluorescence Cell-Free Homogeneous Dose Retest to Identify Inhibitors of RecA-Intein Splicing Activity. [Related pubchem assays (depositor defined):AID2097, AID2223, AID489010, AID492950]; format: functional
T3 sequence (P9WHJ3 whole entry): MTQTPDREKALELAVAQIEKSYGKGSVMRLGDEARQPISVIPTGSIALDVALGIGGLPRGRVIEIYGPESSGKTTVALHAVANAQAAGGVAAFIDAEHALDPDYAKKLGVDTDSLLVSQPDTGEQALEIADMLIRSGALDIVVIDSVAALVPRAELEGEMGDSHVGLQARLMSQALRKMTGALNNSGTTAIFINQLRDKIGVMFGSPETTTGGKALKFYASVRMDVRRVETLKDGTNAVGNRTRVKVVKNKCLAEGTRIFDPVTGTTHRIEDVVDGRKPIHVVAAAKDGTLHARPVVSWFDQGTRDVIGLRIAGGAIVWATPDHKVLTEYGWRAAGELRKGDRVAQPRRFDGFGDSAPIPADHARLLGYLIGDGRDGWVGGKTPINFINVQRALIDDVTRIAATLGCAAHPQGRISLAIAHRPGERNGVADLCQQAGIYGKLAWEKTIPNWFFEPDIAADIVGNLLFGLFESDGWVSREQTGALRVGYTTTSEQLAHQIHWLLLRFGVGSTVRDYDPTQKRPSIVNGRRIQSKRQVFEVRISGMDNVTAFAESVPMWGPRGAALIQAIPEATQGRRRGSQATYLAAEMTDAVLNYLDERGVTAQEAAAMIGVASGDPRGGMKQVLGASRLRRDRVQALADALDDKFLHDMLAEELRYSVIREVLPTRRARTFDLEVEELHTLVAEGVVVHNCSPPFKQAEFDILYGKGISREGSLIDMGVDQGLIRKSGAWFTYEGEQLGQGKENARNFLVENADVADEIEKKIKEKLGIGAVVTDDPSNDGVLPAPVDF

[7] = molecular target: T4, Sentrin-specific protease 8 (Homo sapiens, UniProt Q96LD8); format: functional;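 also: kinetic enzyme assay of SENP8 cleaving a Nedd8 protein substrate, dose-response confirmation of screening hits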
T4 sequence (Q96LD8 whole entry): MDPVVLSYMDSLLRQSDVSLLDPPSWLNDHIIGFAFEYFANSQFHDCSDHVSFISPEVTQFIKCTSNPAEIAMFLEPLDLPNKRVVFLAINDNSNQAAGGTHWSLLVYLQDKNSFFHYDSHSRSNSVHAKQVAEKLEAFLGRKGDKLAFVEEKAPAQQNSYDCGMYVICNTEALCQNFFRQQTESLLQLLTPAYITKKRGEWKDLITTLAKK

[8] = molecular target: T5, Replicative DNA helicase DnaB (Mycobacterium tuberculosis, UniProt P9WMR3); experiment: DnaB intein splicing inhibitors, dose response, biochemical, cell-free fluorescence (AID 449749); format: functional
T5 sequence (P9WMR3 whole entry): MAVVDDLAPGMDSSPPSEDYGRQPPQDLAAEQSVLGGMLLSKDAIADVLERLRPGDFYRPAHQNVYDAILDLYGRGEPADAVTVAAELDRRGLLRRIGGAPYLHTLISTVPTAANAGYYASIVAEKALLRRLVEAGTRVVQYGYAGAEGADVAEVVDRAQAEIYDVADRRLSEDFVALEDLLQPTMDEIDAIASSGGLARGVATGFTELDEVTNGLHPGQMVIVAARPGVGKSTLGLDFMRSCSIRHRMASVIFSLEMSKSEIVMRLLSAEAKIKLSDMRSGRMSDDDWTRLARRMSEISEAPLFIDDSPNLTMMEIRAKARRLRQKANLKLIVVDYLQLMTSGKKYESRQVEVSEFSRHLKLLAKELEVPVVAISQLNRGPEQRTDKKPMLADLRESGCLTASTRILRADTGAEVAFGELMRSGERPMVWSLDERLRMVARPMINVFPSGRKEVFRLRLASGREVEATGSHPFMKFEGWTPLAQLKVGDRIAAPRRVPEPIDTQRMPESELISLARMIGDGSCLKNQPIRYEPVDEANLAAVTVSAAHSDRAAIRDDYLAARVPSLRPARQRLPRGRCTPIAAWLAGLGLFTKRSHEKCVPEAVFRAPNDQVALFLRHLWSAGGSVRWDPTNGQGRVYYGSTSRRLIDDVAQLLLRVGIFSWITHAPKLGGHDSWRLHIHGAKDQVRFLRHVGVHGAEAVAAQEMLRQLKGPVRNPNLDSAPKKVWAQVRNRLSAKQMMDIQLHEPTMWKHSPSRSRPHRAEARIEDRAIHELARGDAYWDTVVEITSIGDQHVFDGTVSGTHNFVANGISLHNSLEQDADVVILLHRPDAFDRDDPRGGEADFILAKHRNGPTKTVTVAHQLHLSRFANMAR

Interleukin-8 = Interleukin-8 (Homo sapiens, UniProt P10145); experiment: Dose Response confirmation of uHTS small molecule hits for cystic fibrosis induced NFkb Inhibitors in a PAF-induced IL8 counterscreen.; format: functional; conditions: read-out: IC50_Mean
[9] = blockers of HIV-1 envelope-mediated cell-cell fusion – cherry-pick, dose response (AID 652057); format: functional, cell-based
[10] = HIV-1 AD8 envelope cell-cell fusion blockers – cherry-pick, dose response (AID 652062); format: functional, cell-based;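 also: luciferase signal from cell-cell fusion driven by HIV-1 clade B AD8 Env; potency is for inhibitors of fusion seen as a drop in luminescence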
[11] = off-target signal loss in HeLa-CEM21 co-culture – HeLa F-luc CTL cells, cherry-picked, counter-screen for HIV-1 Env fusion inhibitor project, dose response (AID 652040); format: functional, cell-based;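 also: potency for signal decrease marking cytotoxic or nonspecific inhibition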
[12] = molecular target: T6, Small ubiquitin-related modifier 2 (Homo sapiens, UniProt P61956); experiment: disruption of SUMO2 interaction with SIM peptide – biochemical, fluorescence polarization, uHTS hits, selectivity assay for SUMO1 interaction inhibitor project, dose response (AID 624385); format: functional; conditions: read-out: IC50_Mean
Genome polyprotein = Genome polyprotein (dengue virus type 2, UniProt P29990); experiment: flavivirus cap methylation enzyme inhibition – biochemical, confirmation dose response, primary screen (AID 588689); format: functional
[13] = molecular target: T7, Small ubiquitin-related modifier 1 (Homo sapiens, UniProt P63165); experiment: SUMO1 protein interaction blockers, potency – biochemical, fluorescence polarization, uHTS hits, dose response (AID 624382); format: functional; conditions: read-out: IC50_Mean
[14] = molecular target: T6, Small ubiquitin-related modifier 2; experiment: SUMO2 binding disruption by SUMO1 hits – biochemical, FRET, human SUMO2, uHTS hits, selectivity assay for SUMO1 interaction inhibitor project, dose response (AID 624384); format: functional; conditions: read-out: IC50_Mean
[15] = molecular target: T7, Small ubiquitin-related modifier 1; experiment: SUMO1 protein-protein binding blockers, potency – biochemical, FRET, dose response (AID 624383); format: functional; conditions: read-out: IC50_Mean
[16] = molecular target: T8, Rac GTPase-activating protein 1 (Homo sapiens, UniProt Q9H0H5); experiment: blockers of MgcRacGAP-driven Rac1 GTP hydrolysis – biochemical, ADP Hunter fluorescence, primary and confirmatory, confirmation (AID 624330); format: functional
T8 sequence (Q9H0H5 whole entry): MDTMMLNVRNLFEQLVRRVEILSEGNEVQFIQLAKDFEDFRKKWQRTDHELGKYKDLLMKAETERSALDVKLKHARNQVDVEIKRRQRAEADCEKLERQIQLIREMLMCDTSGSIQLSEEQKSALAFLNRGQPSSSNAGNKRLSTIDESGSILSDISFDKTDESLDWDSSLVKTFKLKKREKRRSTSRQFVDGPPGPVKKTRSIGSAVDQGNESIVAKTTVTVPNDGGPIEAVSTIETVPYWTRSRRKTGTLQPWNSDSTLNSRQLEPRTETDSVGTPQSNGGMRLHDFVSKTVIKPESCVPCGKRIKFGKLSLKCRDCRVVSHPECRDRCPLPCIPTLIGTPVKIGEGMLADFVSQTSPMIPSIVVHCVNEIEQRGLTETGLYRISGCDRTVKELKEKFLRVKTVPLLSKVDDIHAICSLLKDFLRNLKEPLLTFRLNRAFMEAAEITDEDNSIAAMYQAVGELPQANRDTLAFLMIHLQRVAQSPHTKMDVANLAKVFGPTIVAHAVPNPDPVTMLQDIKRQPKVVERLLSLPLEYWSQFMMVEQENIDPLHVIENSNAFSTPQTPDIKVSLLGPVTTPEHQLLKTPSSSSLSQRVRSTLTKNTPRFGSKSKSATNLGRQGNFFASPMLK

[17] = molecular target: T9, Probable nicotinate-nucleotide adenylyltransferase (Staphylococcus aureus (strain N315), UniProt P65502); format: functional, Staphylococcus aureus subsp. aureus N315; conditions: read-out: IC50_Mean;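 as to IC50 Mean: confirmatory dose-response retesting of NadD inhibitor hits first found in an ultra-high-throughput screen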
[18] = molecular target: T9, Probable nicotinate-nucleotide adenylyltransferase; format: functional, Staphylococcus aureus subsp. aureus N315
[19] = molecular target: Carboxy-terminal domain RNA polymerase II polypeptide A small phosphatase 1 (Homo sapiens, UniProt Q9GZU7); experiment: CTDSP1 inhibitors, concentration-response, biochemical, absorbance readout, ultra-high-throughput screen actives (AID 540297); format: functional
[20] = mouse fibroblast viability loss – cell-based, cherry-pick samples, set 2, cytotoxicity control for T. cruzi growth inhibitor project, dose response (AID 651817); format: functional; conditions: NIH3T3

T9 sequence (P65502 whole entry): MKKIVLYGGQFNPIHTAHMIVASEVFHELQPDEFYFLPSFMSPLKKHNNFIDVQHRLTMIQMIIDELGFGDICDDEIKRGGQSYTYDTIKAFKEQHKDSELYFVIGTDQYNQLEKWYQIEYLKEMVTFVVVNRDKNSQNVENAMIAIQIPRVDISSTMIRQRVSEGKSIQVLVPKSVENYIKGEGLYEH
T7 sequence (P63165 whole entry): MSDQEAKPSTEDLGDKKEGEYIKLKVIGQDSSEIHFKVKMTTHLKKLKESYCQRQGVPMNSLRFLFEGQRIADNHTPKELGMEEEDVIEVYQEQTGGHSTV
T6 sequence (P61956 whole entry): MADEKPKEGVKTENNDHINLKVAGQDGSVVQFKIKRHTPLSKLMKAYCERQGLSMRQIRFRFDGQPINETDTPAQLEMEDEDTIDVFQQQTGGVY
Chain of Carboxy-terminal domain RNA polymerase II polypeptide A small phosphatase 1 (Q9GZU7 whole entry, the tested form may be a part): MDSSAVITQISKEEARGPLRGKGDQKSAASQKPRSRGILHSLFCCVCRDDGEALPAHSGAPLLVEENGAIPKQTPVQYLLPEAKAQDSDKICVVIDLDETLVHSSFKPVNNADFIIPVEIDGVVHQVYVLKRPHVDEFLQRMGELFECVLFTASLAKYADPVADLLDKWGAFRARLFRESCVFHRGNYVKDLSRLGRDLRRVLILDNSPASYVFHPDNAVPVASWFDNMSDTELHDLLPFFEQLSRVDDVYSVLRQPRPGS
Chain of Sentrin-specific protease 1 (Q9P0U3 whole entry, the tested form may be a part): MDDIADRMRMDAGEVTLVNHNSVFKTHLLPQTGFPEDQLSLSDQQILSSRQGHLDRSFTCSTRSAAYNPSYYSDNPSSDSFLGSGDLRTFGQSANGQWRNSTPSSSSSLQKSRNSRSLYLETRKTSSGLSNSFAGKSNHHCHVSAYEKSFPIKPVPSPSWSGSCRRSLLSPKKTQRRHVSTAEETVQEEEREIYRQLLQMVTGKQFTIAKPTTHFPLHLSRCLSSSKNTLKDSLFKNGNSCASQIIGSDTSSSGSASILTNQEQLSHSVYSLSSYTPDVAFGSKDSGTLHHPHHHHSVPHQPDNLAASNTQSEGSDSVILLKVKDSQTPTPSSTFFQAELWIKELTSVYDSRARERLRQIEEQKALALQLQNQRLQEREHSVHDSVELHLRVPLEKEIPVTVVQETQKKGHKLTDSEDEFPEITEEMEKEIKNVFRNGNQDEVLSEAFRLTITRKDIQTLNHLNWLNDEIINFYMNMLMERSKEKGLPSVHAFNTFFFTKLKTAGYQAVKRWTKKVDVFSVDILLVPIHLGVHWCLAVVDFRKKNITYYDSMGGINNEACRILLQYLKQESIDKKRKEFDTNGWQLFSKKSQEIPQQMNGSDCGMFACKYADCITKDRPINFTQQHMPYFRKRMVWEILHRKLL
Chain of Genome polyprotein (P29990 2492-3391 limits assumed): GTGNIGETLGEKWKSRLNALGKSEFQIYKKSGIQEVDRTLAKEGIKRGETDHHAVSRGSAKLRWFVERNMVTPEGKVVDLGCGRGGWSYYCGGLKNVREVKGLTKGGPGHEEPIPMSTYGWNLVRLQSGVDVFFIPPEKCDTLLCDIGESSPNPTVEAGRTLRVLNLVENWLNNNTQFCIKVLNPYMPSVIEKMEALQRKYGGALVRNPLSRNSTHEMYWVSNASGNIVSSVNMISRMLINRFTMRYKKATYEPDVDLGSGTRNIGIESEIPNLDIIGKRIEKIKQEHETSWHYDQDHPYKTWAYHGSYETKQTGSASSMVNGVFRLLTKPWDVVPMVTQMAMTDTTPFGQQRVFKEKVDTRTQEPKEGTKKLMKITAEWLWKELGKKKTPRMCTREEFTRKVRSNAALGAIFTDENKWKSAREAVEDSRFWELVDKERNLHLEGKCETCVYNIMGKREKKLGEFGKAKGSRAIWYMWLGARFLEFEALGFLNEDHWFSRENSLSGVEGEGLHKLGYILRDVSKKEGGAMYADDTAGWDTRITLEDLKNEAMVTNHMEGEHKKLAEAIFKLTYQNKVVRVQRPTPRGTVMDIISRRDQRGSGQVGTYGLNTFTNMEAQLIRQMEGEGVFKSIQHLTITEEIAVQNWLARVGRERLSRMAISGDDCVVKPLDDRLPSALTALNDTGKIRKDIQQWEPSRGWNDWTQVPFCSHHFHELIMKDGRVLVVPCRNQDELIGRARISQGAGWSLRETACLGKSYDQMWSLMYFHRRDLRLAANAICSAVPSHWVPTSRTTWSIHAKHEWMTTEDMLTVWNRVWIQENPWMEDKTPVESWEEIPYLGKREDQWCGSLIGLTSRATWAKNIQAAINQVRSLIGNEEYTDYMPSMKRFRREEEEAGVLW
Chain of Mitochondrial peptide methionine sulfoxide reductase (P54149 whole entry): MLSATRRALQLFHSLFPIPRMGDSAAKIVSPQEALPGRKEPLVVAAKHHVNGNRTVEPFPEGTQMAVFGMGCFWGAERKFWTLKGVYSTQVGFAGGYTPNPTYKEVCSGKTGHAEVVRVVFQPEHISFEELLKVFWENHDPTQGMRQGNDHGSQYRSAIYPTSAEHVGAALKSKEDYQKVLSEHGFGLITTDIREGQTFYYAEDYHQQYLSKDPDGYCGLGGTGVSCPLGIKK
Chain of Interleukin-8 (P10145 whole entry, the tested form may be a part): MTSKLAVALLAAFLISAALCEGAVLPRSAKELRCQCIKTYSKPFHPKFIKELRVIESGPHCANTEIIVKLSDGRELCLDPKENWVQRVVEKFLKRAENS

Cc1c(OCC(=O)N(C)C)ccc2c(-c3ccccc3)cc(=O)oc12
IC50 [1]: 93.6 µM (inactive)

Cc1noc(C)c1COC(=O)c1cc(C)n(-c2ccccc2)c1C
EC50 [2]: > 53 µM (inactive) | IC50 [3]: 6.04 µM (active) | IC50 [4]: > 20 µM (inactive)

Cc1nc2ccc(NS(=O)(=O)c3ccc(F)cc3F)cc2s1
IC50 [5]: 18.4 µM (active)

COc1ccc(O)c(C(c2c(C)[nH][nH]c2=O)c2c(C)[nH][nH]c2=O)c1
IC50 [6]: 33.6 µM (inactive) | EC50 (Protein RecA): 1.17 µM (active) | IC50 [7]: 7.14 µM (active) | AC50 [8]: 1.42 µM (active)

COc1ccc(-c2cc(=O)oc3c(C)c(O)ccc23)cc1
IC50 (Interleukin-8): > 79 µM (inactive) | AC50 [9]: 3.8 µM (active) | AC50 [10]: 5.69 µM (active) | AC50 [11]: 9.72 µM (active)

CCCCCC(=O)Nc1cc(S(=O)(=O)O)cc2cc(S(=O)(=O)O)cc(O)c12
IC50 [12]: 6.81 µM (active) | IC50 (Genome polyprotein): 30 µM (active) | IC50 [13]: 19.2 µM (active) | IC50 [14]: 0.92 µM (active) | IC50 [15]: 2.29 µM (active) | IC50 [16]: 31.7 µM (active)

CC1CCCCC1NC(=O)COC(=O)c1c2c(nc3ccccc13)/C(=C\c1ccco1)CC2 (stereo not drawn)
IC50 [17]: 14.6 µM (active) | IC50 [18]: 6.81 µM (active) | IC50 [19]: 5.27 µM (active)

C[C@@H]1CN([C@@H](C)CO)C(=O)Cc2cc(NS(=O)(=O)c3ccc(F)cc3)ccc2O[C@@H]1CN(C)Cc1ccc(Cl)c(Cl)c1
AC50 [20]: 11 µM (active)
